In patent US8835134B2, “Cycloastragenol monoglucoside, preparation, pharmaceutical composition and application thereof” (Tianjin Institute of Pharmaceutical Research, priority 2007, dated 2014):

Test system: anesthetized open-chest dogs
Assay: Hemodynamics of anesthetized open-chest dogs, intravenous infusion
Type: in vivo, mongrel dogs
Details: 0.15 mg/kg iv
Description: The animals were anesthetized by intravenous injection of 30 mg/kg sodium pentobarbital, tracheally intubated, and mechanically ventilated with positive air pressure. Left thoracotomy was performed through the fourth intercostal space and the heart was suspended in a pericardial cradle, the aortic root was isolated and a probe of blood flow meter (12 or 14 mm in diameter) was fixed to measure the aortic blood flow as a representation of cardiac output (CO), the circumflex branch of left coronary artery was isolated and a probe of blood flow meter (2 or 2.5 mm in diameter) was fixed to measure the coronary blood flow (CBF). A polyethylene catheter filled with heparin physiological saline was inserted through cardiac apex into the left ventricle to measure the left ventricular pressure (LVP) and left ventricular end-diastolic pressure (LVEDP), Peak positive and peak negative first derivatives of the LVP (+ LVdp/dt and − LVdp/dt) were calculated with the Acknowledge software. The systolic blood pressure (SBP), diastolic blood pressure (DBP) and mean arterial pressure (MAP) were measured by polyethylene catheter via the femoral artery, ECG □ was measured by a AC-601G ECG amplifier. The above-mentioned analog signal was input into a data acquisition workstation (MP100, BIOPAC Systems, USA) to a computer running Acknowledge (version 3.7.1).
After surgery, various indexes before administration were recorded until the indexes were stable, and then intravenous infusion administration was conducted. Thirty dogs were divided into five groups (six dogs in each group), the experiment groups were given 0.15, 0.3, 0.6 mg/kg of ASP-[…] respectively, the normal control group was given 1 ml/kg of solvent, and the positive control group was given 0.3 mg/kg of astragaloside IV. The delivery volumes were 15 ml for each dog was and the delivery velocity was 1 ml/min. The indexes were recorded at 5, 10, 15, 20, 30, 45, 60, 90 and 120 mins after drug administration. At the end of experiment, the hearts were excised and weighted. The myocardial blood flow for per hectogram (CF), coronary resistance (CR), cardiac index (CI), left ventricular work (LVW) and total peripheral resistance (TPR) were calculated according to the following formulae: CF=CBF×[…]/heart weight CR=MAP/CF CI=CO/0.11×(body weight)^2/3 LVW=CO×(MAP−5)×1.052×0.0136 TPR=MAP×79.92/CO
Data are expressed as mean±SD ( x±s), the paired t-test was used to compare the significance between before and after administration, the unpaired t-test was adopted for comparison between groups.

CC(C)(O)[C@@H]1CC[C@](C)([C@H]2[C@@H](O)C[C@@]3(C)C4C[C@H](OC5OC(CO)C(O)C(O)C5O)C5C(C)(C)[C@@H](O)CC[C@@]56C[C@@]46CC[C@]23C)O1 (stereo partly drawn) [CMG, Cycloastragenol-6-O-β-D-glucoside]
LVEDP maximum decrease: 1.1±0.4 mmHg
CF (5 min after administration): 57 ± 21.7 ml/min/100 g
CF change vs before administration (5 min after administration): (−0.7 ± 3.6) ml/min/100 g
CI (5 min after administration): 2.15 ± 0.65 L/min/m^2
CI change vs before administration (5 min after administration): (0.07 ± 0.16) L/min/m^2
CO (5 min after administration): 1.24 ± 0.38 L/min
CO change vs before administration (5 min after administration): (0.04 ± 0.09) L/min
CR (5 min after administration): 1.35 ± 0.42 mmHg/ml/min/100 g
CR change vs before administration (5 min after administration): (−0.01 ± 0.08) mmHg/ml/min/100 g
LVEDP (5 min after administration): 1.0 ± 2.3 mmHg
LVEDP change vs before administration (5 min after administration): (−0.78 ± 0.61) mmHg
LVP (5 min after administration): 105 ± 21 mmHg
LVP change vs before administration (5 min after administration): (0.1 ± 3.4) mmHg
LVW (5 min after administration): 1.15 ± 0.43 kg · m
LVW change vs before administration (5 min after administration): (0.03 ± 0.17) kg · m
TPR (5 min after administration): 4967 ± 2135 dyn · s/cm^5
TPR change vs before administration (5 min after administration): (−183 ± 313) dyn · s/cm^5
dp/dt (5 min after administration): 1205 ± 417 mmHg/s
dp/dt change vs before administration (5 min after administration): (56 ± 94) mmHg/s
−dp/dt (5 min after administration): −865 ± 286 mmHg/s
−dp/dt change vs before administration (5 min after administration): (22 ± 65) mmHg/s
CF (10 min after administration): 55.9 ± 21.6 ml/min/100 g
CF change vs before administration (10 min after administration): (−1.8 ± 5.0) ml/min/100 g
CI (10 min after administration): 2.26 ± 0.55 L/min/m^2
CI change vs before administration (10 min after administration): (0.18 ± 0.20) L/min/m^2
CO (10 min after administration): 1.31 ± 0.32 L/min
CO change vs before administration (10 min after administration): (0.10 ± 0.12) L/min
CR (10 min after administration): 1.36 ± 0.42 mmHg/ml/min/100 g
CR change vs before administration (10 min after administration): (0.00 ± 0.11) mmHg/ml/min/100 g
LVEDP (10 min after administration): 1.0 ± 2.3 mmHg
LVEDP change vs before administration (10 min after administration): (−0.73 ± 0.49) mmHg
LVP (10 min after administration): 103 ± 22 mmHg
LVP change vs before administration (10 min after administration): (−1.5 ± 3.7) mmHg
LVW (10 min after administration): 1.18 ± 0.34 kg · m
LVW change vs before administration (10 min after administration): (0.06 ± 0.19) kg · m
TPR (10 min after administration): 4568 ± 1871 dyn · s/cm^5
TPR change vs before administration (10 min after administration): (−582 ± 652) dyn · s/cm^5
dp/dt (10 min after administration): 1173 ± 407 mmHg/s
dp/dt change vs before administration (10 min after administration): (23 ± 110) mmHg/s
−dp/dt (10 min after administration): −883 ± 288 mmHg/s
−dp/dt change vs before administration (10 min after administration): (5 ± 36) mmHg/s
CF (15 min after administration): 55.9 ± 22.2 ml/min/100 g
CF change vs before administration (15 min after administration): (−1.8 ± 5.8) ml/min/100 g
CI (15 min after administration): 2.09 ± 0.45 L/min/m^2
CI change vs before administration (15 min after administration): (0.01 ± 0.24) L/min/m^2
CO (15 min after administration): 1.21 ± 0.26 L/min
CO change vs before administration (15 min after administration): (0.00 ± 0.15) L/min
CR (15 min after administration): 1.32 ± 0.38 mmHg/ml/min/100 g
CR change vs before administration (15 min after administration): (−0.03 ± 0.14) mmHg/ml/min/100 g
LVEDP (15 min after administration): 1.0 ± 2.3 mmHg
LVEDP change vs before administration (15 min after administration): (−0.73 ± 0.60) mmHg
LVP (15 min after administration): 103 ± 25 mmHg
LVP change vs before administration (15 min after administration): (−2.0 ± 4.7) mmHg
LVW (15 min after administration): 1.08 ± 0.31 kg · m
LVW change vs before administration (15 min after administration): (−0.04 ± 0.19) kg · m
TPR (15 min after administration): 4612 ± 1333 dyn · s/cm^5
TPR change vs before administration (15 min after administration): (−538 ± 1075) dyn · s/cm^5
dp/dt (15 min after administration): 1170 ± 449 mmHg/s
dp/dt change vs before administration (15 min after administration): (20 ± 113) mmHg/s
−dp/dt (15 min after administration): −875 ± 288 mmHg/s
−dp/dt change vs before administration (15 min after administration): (13 ± 49) mmHg/s
CF (20 min after administration): 54.3 ± 20.4 ml/min/100 g
CF change vs before administration (20 min after administration): (−3.4 ± 4.4) ml/min/100 g
CI (20 min after administration): 2.05 ± 0.45 L/min/m^2
CI change vs before administration (20 min after administration): (−0.03 ± 0.26) L/min/m^2
CO (20 min after administration): 1.19 ± 0.27 L/min
CO change vs before administration (20 min after administration): (−0.02 ± 0.15) L/min
CR (20 min after administration): 1.35 ± 0.39 mmHg/ml/min/100 g
CR change vs before administration (20 min after administration): (0.00 ± 0.13) mmHg/ml/min/100 g
LVEDP (20 min after administration): 1.2 ± 2.4 mmHg
LVEDP change vs before administration (20 min after administration): (−0.62 ± 0.47) mmHg
LVP (20 min after administration): 101 ± 21 mmHg
LVP change vs before administration (20 min after administration): (−3.8 ± 5.1) mmHg
